Measured values reported in PMC9386001, “Identification of naturally occurring inhibitors in Xian-Ling-Gu-Bao capsule against the glucuronidation of estrogens” (Frontiers in Pharmacology, 2022).
Read-outs that look alike come from different tables or passages of the source.

What was measured:
UGT1A1 [1] = target: T1, UGT1A1 (Homo sapiens, UniProt P22309); assay: Inhibition of UGT1A1 (β-estradiol-3-O-glucuronidation); conditions: for Inhibitory type: best model by smallest AIC and SC; for activity at 10 µM: human, human UGT1A1 enzyme, probe β-estradiol (E2)
T1 sequence (P22309 26-533): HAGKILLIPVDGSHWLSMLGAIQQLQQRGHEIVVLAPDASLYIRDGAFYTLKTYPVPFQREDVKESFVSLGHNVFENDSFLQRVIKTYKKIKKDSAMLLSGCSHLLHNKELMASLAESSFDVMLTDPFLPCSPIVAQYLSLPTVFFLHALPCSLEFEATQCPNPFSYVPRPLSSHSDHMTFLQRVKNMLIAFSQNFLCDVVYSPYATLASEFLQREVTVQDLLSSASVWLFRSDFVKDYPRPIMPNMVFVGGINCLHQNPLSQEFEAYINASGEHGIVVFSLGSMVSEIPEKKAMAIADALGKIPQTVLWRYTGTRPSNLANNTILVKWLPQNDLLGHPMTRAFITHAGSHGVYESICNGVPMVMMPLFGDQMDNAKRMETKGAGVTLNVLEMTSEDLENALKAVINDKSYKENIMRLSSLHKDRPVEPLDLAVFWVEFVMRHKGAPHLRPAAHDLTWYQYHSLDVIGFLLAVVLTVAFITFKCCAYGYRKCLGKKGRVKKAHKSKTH
Method: (§1) The final volume of solvent in incubations was 1%. In addition, emodin, atazanavir, and diclofenac were considered as positive controls for UGT1A10, UGT1A1, and UGT2B7, respectively.
(§2) Competitive inhibition, non-competitive inhibition, and mixed-type inhibition models were used to estimate the Ki values by nonlinear regression based on Eqs 6–8, respectively.

UGT1A10 = target: T2, UGT1A10 (Homo sapiens, UniProt Q9HAW8); assay: Inhibition of UGT1A10 (4-methylumbelliferone-O-glucuronidation); conditions: for Inhibitory type: UGT1A10, best model by smallest AIC and SC; for activity at 10 µM: human, expressed human UGT1A10 enzyme, probe 4-methylumbelliferone (4-MU)
T2 sequence (Q9HAW8 26-530): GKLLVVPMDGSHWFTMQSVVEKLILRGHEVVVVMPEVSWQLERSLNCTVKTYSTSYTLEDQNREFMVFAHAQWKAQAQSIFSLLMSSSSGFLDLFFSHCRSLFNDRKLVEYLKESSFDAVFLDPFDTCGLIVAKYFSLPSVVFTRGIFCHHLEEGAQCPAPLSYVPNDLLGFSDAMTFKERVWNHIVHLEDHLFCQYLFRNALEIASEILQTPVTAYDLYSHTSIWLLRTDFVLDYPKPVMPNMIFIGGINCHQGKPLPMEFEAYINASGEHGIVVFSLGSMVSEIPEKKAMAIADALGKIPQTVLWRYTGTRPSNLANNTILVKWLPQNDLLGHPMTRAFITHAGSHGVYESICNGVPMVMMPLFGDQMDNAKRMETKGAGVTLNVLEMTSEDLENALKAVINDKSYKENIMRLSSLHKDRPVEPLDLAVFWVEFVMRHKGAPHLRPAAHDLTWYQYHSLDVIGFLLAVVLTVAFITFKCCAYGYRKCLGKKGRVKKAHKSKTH
Method: as §1, §2

UGT2B7 = target: T3, UGT2B7 (Homo sapiens, UniProt P16662); assay: Inhibition of UGT2B7 (zidovudine-N-glucuronidation); conditions: for Inhibitory type: best model by smallest AIC and SC; for α: mixed-type inhibition model, αKi; for activity at 10 µM: human, UGT2B7 enzyme (optimized UGT2B7 incubation system), probe zidovudine (AZT)
T3 sequence (P16662 24-529): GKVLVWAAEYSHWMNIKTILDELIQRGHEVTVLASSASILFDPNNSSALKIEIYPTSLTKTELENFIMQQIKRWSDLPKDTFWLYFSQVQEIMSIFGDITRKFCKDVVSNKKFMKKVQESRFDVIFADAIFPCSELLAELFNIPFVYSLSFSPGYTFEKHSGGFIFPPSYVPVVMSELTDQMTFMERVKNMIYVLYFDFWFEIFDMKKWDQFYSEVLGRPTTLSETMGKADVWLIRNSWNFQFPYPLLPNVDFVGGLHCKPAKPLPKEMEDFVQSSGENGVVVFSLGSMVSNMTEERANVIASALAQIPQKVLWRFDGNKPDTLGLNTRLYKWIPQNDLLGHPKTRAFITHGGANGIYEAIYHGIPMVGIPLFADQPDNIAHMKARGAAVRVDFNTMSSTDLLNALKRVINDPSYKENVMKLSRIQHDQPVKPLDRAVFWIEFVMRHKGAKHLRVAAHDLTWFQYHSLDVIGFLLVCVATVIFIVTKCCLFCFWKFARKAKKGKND
Method: as §1, §2

UGT1A1 [2] = system: UGT1A1; design: method as in Wang et al., 2015a; conditions: ref Wang et al., 2015a; cited from earlier work
[3] = substrate: C[C@]12CC[C@@H]3c4ccc(O)cc4CC[C@H]3[C@@H]1C[C@@H](O)[C@@H]2O; assay: cells, lysate or membranes named; conditions: other: UGT2B7; 16-O-glucuronide formation; pH 7.4; 37.0 °C
Method: In brief, incubation mixtures (100 μL) contained Tris-HCl buffer solution (50 mM, pH = 7.4), microsomes (HLM, HIM, 0.5 mg/ml) or UGT enzymes (1 mg/ml), MgCl2 (0.88 mM), alamethicin (22 μg/ml), and D-saccharic-1,4-lactone (4.4 mM) and respective substrate. The volume of organic solvent in incubation mixtures was kept below 1%. After pre-incubation at 37°C for 5 min, the reaction was commenced with the addition of UDPGA (4 mM) and subsequently incubated at 37°C for a period. The reaction was terminated by adding 100 μL of cold acetonitrile. Then, the incubation mixtures were vortexed and centrifuged at 13,800 g for 10 min to collect the supernatant for analysis.
All experiments were performed in triplicate.
Glucuronidation rates were expressed as the amounts of formed metabolites per minute per milligram protein (pmol/min/mg protein) based on Eq. 1. Furthermore, kinetic characteristics were evaluated from the suitable curves based on the profile of the Eadie–Hofstee plot, and corresponding kinetic parameters were estimated using Eqs 2–4. Appropriated model fitting was performed by GraphPad Prism V5 software (San Diego, CA).
The intrinsic clearance (CL int ) was derived from V max /K m for Michaelis–Menten and substrate inhibition models, and the maximal clearance (CL max ) was obtained using Eq. 5 for Hill kinetics.

## CC(C)=CCC/C(C)=C/Cc1cc(-c2coc3cc(O)ccc3c2=O)ccc1O [Corylifol A, corylifol A]
UGT1A1 [1]
  IC50: 440 ± 50 nM
  Ki: 440 ± 70 nM
  activity at 10 µM: 0.72%
UGT1A1 [1]; UGT1A1
  Inhibitory type: Competitive
UGT1A10
  IC50: 2910 ± 340 nM
  Ki: 780 ± 60 nM
  Inhibitory type: Non-competitive
  activity at 10 µM: 13.9%
UGT2B7
  IC50: 880 ± 80 nM
  Ki: 360 ± 70 nM
  activity at 10 µM: 0%
UGT2B7; UGT2B7
  Inhibitory type: Mixed type
  α: 5.17 ± 3.55
UGT1A1 [2]
  Ki: < 1000 nM

## CC(C)=CCc1cc2c(cc1O)O[C@H](c1ccc(O)cc1)CC2=O [Bavachin, bavachin]
UGT1A1 [1]
  IC50: 610 ± 20 nM
  Ki: 400 ± 50 nM
  activity at 10 µM: 2.43%
UGT1A1 [1]; UGT1A1
  Inhibitory type: Non-competitive
UGT1A10
  IC50: 5630 ± 460 nM
  Ki: 2810 ± 210 nM
  Inhibitory type: Competitive
  activity at 10 µM: 35.6%
UGT2B7
  IC50: 4970 ± 550 nM
  Ki: 640 ± 160 nM
  activity at 10 µM: 32.5%
UGT2B7; UGT2B7
  Inhibitory type: Mixed type
  α: 69.70 ± 6.67
UGT1A1 [2]
  Ki: < 1000 nM

## CC(C)=CCc1c(O)ccc2c1O[C@H](c1ccc(O)cc1)CC2=O [Isobavachin, isobavachin]
UGT1A1 [1]
  IC50: 1730 ± 110 nM
  activity at 10 µM: 4.58%
UGT1A1 [1]; UGT1A1
  Inhibitory type: Competitive
UGT1A1 [1]; UGT1A1, substrate E2
  Ki: 3350 ± 530 nM
UGT1A10
  IC50: 3620 ± 360 nM
  Ki: 1810 ± 280 nM
  Inhibitory type: Non-competitive
  activity at 10 µM: 20.4%
UGT2B7
  IC50: 110 ± 10 nM
  activity at 10 µM: 0%
UGT2B7; UGT2B7
  Inhibitory type: Competitive
UGT2B7; UGT2B7, substrate AZT
  Ki: 20 ± 10 nM

B1: UGT2B7 (Homo sapiens) (protein)
chain: GKVLVWAAEYSHWMNIKTILDELIQRGHEVTVLASSASILFDPNNSSALKIEIYPTSLTKTELENFIMQQIKRWSDLPKDTFWLYFSQVQEIMSIFGDITRKFCKDVVSNKKFMKKVQESRFDVIFADAIFPCSELLAELFNIPFVYSLSFSPGYTFEKHSGGFIFPPSYVPVVMSELTDQMTFMERVKNMIYVLYFDFWFEIFDMKKWDQFYSEVLGRPTTLSETMGKADVWLIRNSWNFQFPYPLLPNVDFVGGLHCKPAKPLPKEMEDFVQSSGENGVVVFSLGSMVSNMTEERANVIASALAQIPQKVLWRFDGNKPDTLGLNTRLYKWIPQNDLLGHPKTRAFITHGGANGIYEAIYHGIPMVGIPLFADQPDNIAHMKARGAAVRVDFNTMSSTDLLNALKRVINDPSYKENVMKLSRIQHDQPVKPLDRAVFWIEFVMRHKGAKHLRVAAHDLTWFQYHSLDVIGFLLVCVATVIFIVTKCCLFCFWKFARKAKKGKND
[3]
  K0.5: 9.92 ± 0.69 µM
  Vmax: 0.00788 µmol/min/mg
  Vmax/Km: 794 µL/min/mg
